Here are results for six cell lines from the supplement of paper PMC10307832.

Common to all, as to assay: relative viability (nuclei count vs DMSO), 5 days (fraction); higher = more cells survive
Compound in experiment [1]: C/C(=N\NC(=S)N1CCC1)/C2=CC=CC=N2 + CCNC(=O)c1noc(-c2cc(C(C)C)c(O)cc2O)c1-c1ccc(CN2CCOCC2)cc1 [Luminespib] (partner 0.01 µM)
In short, it runs like this: (§1)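 For relative viability, nuclei counts in treated wells were divided by those in vehicle wells. Lung cancer cell lines had been pin-tool dosed in 1536-well plates the day after seeding and cultured for 5 days, then fixed and stained in one step (final 0.05% Triton X-100, 1% formaldehyde, 1 ug/ml Hoechst) and imaged at 4×. Doses were one drug alone or a fixed anchor-drug dose plus five library-drug doses (not always all listed) in √10 steps, and values are duplicate-plate medians.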

Compound in experiment [2]: C/C(=N\NC(=S)N1CCC1)/C2=CC=CC=N2 + COc1cc2c(Oc3ccc(NC(=O)C4(C(=O)Nc5ccc(F)cc5)CC4)cc3F)ccnc2cc1OCCCN1CCOCC1 [Foretinib] (partner 0.25 µM)
In short, it runs like this: as §1

Compound in experiment [3]: C/C(=N\NC(=S)N1CCC1)/C2=CC=CC=N2 + Cc1nc(Nc2ncc(C(=O)Nc3c(C)cccc3Cl)s2)cc(N2CCN(CCO)CC2)n1 [Dasatinib] (partner 0.075 µM)
In short, it runs like this: as §1

Compound in experiment [4]: C/C(=N\NC(=S)N1CCC1)/C2=CC=CC=N2 + Nc1ncn([C@H]2C[C@H](O)[C@@H](CO)O2)c(=O)n1 [Decitabine] (partner 2 µM)
In short, it runs like this: as §1

NCI-H2126: the relative viability worked out at 0.201 in experiment [1] (first compound 0.05 µM); 0.201 in experiment [1] (first compound 0.1581 µM); 0.198 in experiment [1] (first compound 0.5 µM); 0.178 in experiment [1] (first compound 1.581 µM); 0.225 in experiment [1] (first compound 5 µM); 0.223 in experiment [2] (first compound 0.05 µM). In addition, the relative viability is 0.167 in experiment [2] (first compound 0.1581 µM); 0.167 in experiment [2] (first compound 0.5 µM); 0.213 in experiment [2] (first compound 1.581 µM); 0.201 in experiment [2] (first compound 5 µM); 0.185 in experiment [3] (first compound 0.05 µM); 0.18 in experiment [3] (first compound 0.1581 µM). Further, the relative viability in experiment [3] (first compound 0.5 µM) was 0.179; in experiment [3] (first compound 1.581 µM), 0.163; in experiment [3] (first compound 5 µM), 0.187; in experiment [4] (first compound 0.05 µM), 0.292; in experiment [4] (first compound 0.1581 µM), 0.599; in experiment [4] (first compound 0.5 µM) it was 0.222. Also, the relative viability in experiment [4] (first compound 1.581 µM) was found to be 0.226; in experiment [4] (first compound 5 µM) it was 0.247.

Consider NCI-H2170, for which the relative viability in experiment [1] (first compound 0.05 µM) worked out at 0.689; in experiment [1] (first compound 0.1581 µM), 0.25; in experiment [1] (first compound 0.5 µM), 0.136; in experiment [1] (first compound 1.581 µM), 0.18; in experiment [1] (first compound 5 µM), 0.151; in experiment [2] (first compound 0.05 µM), 0.871. The relative viability in experiment [2] (first compound 0.1581 µM) came out at 0.341; in experiment [2] (first compound 0.5 µM) it was 0.312; in experiment [2] (first compound 1.581 µM), 0.199; in experiment [2] (first compound 5 µM), 0.203; in experiment [3] (first compound 0.05 µM) it was 0.164; in experiment [3] (first compound 0.1581 µM), 0.167. In addition, the relative viability in experiment [3] (first compound 0.5 µM) amounted to 0.145; in experiment [3] (first compound 1.581 µM) it was 0.125; in experiment [3] (first compound 5 µM), 0.161; in experiment [4] (first compound 0.05 µM), 0.374; in experiment [4] (first compound 0.1581 µM), 0.434; in experiment [4] (first compound 0.5 µM), 0.22. Also, the results for the relative viability in experiment [4] (first compound 1.581 µM) and in experiment [4] (first compound 5 µM) were 0.199 and 0.14, respectively.

For NCI-H2342, the relative viability turned out to be 0.261 in experiment [1] (first compound 0.05 µM); 0.279 in experiment [1] (first compound 0.1581 µM); 0.23 in experiment [1] (first compound 0.5 µM); 0.245 in experiment [1] (first compound 1.581 µM); 0.238 in experiment [1] (first compound 5 µM); 0.255 in experiment [2] (first compound 0.05 µM). Moreover, the relative viability came out at 0.244 in experiment [2] (first compound 0.1581 µM); 0.263 in experiment [2] (first compound 0.5 µM); 0.24 in experiment [2] (first compound 1.581 µM); 0.233 in experiment [2] (first compound 5 µM); 0.297 in experiment [3] (first compound 0.05 µM); 0.283 in experiment [3] (first compound 0.1581 µM). Further, the relative viability in experiment [3] (first compound 0.5 µM) came out at 0.258; in experiment [3] (first compound 1.581 µM) it was 0.249; in experiment [3] (first compound 5 µM), 0.284; in experiment [4] (first compound 0.05 µM), 0.318; in experiment [4] (first compound 0.1581 µM), 0.306; in experiment [4] (first compound 0.5 µM), 0.265. Moreover, the relative viability in experiment [4] (first compound 1.581 µM) was found to be 0.276; in experiment [4] (first compound 5 µM), 0.25.

Regarding NCI-H2347, the relative viability in experiment [1] (first compound 0.05 µM) is 0.263; in experiment [1] (first compound 0.1581 µM), 0.238; in experiment [1] (first compound 0.5 µM), 0.213; in experiment [1] (first compound 1.581 µM) it was 0.251; in experiment [1] (first compound 5 µM), 0.235; in experiment [2] (first compound 0.05 µM), 0.321. The relative viability in experiment [2] (first compound 0.1581 µM) is 0.391; in experiment [2] (first compound 0.5 µM), 0.312; in experiment [2] (first compound 1.581 µM), 0.31; in experiment [2] (first compound 5 µM), 0.28; in experiment [3] (first compound 0.05 µM) it was 0.209; in experiment [3] (first compound 0.1581 µM), 0.199. Besides, the relative viability in experiment [3] (first compound 0.5 µM) turned out to be 0.26; in experiment [3] (first compound 1.581 µM) it was 0.23; in experiment [3] (first compound 5 µM) it was 0.179; in experiment [4] (first compound 0.05 µM), 0.363; in experiment [4] (first compound 0.1581 µM), 0.335; in experiment [4] (first compound 0.5 µM) it was 0.34. Also, the relative viability in experiment [4] (first compound 1.581 µM) worked out at 0.349; in experiment [4] (first compound 5 µM), 0.367.

For NCI-H2405, the relative viability is 0.218 in experiment [1] (first compound 0.05 µM); 0.245 in experiment [1] (first compound 0.1581 µM); 0.287 in experiment [1] (first compound 0.5 µM); 0.242 in experiment [1] (first compound 1.581 µM); 0.283 in experiment [1] (first compound 5 µM); 0.263 in experiment [2] (first compound 0.05 µM). The relative viability in experiment [2] (first compound 0.1581 µM) was 0.313; in experiment [2] (first compound 0.5 µM), 0.31; in experiment [2] (first compound 1.581 µM) it was 0.251; in experiment [2] (first compound 5 µM) it was 0.264; in experiment [3] (first compound 0.05 µM), 0.219; in experiment [3] (first compound 0.1581 µM), 0.226. Moreover, the relative viability is 0.253 in experiment [3] (first compound 0.5 µM); 0.228 in experiment [3] (first compound 1.581 µM); 0.231 in experiment [3] (first compound 5 µM); 0.284 in experiment [4] (first compound 0.05 µM); 0.246 in experiment [4] (first compound 0.1581 µM); 0.24 in experiment [4] (first compound 0.5 µM). Also, the relative viability in experiment [4] (first compound 1.581 µM) is 0.239; in experiment [4] (first compound 5 µM), 0.246.

With NCI-H3122, the relative viability stood at 0.0803 in experiment [1] (first compound 0.05 µM); 0.063 in experiment [1] (first compound 0.1581 µM); 0.0978 in experiment [1] (first compound 0.5 µM); 0.134 in experiment [1] (first compound 1.581 µM); 0.11 in experiment [1] (first compound 5 µM); 0.101 in experiment [2] (first compound 0.05 µM). In addition, the relative viability in experiment [2] (first compound 0.1581 µM) was found to be 0.0817; in experiment [2] (first compound 0.5 µM), 0.0973; in experiment [2] (first compound 1.581 µM), 0.149; in experiment [2] (first compound 5 µM), 0.158; in experiment [3] (first compound 0.05 µM), 0.0675; in experiment [3] (first compound 0.1581 µM), 0.0912. The relative viability was found to be 0.0839 in experiment [3] (first compound 0.5 µM); 0.11 in experiment [3] (first compound 1.581 µM); 0.11 in experiment [3] (first compound 5 µM); 0.0981 in experiment [4] (first compound 0.05 µM); 0.269 in experiment [4] (first compound 0.1581 µM); 0.086 in experiment [4] (first compound 0.5 µM). The relative viability stood at 0.127 in experiment [4] (first compound 1.581 µM) and 0.136 in experiment [4] (first compound 5 µM).
